Measurements as given in patent EP0183129A1, “Quinolonecarboxylic acid derivatives” (KYORIN PHARMACEUTICAL CO., LTD., priority 1984, dated 1986).
≈ marks a conversion by molar mass, not a printed value. Read-outs that look alike come from different tables or passages of the source.

Legend:
[1] = system: K. pneumoniae 1-220S; assay: In vitro antibacterial activity, MIC (standard strain); assay type: cell-based; details: Klebsiella pneumoniae, 1220S
[2] = system: Morganella morganii IID 602; assay: as above; assay type: cell-based; details: IID602; Morganella morganii IID 602; 10^6 cells/ml; standard strain; read-out: MIC
[3] = system: C. difficile I-E; assay: as above; assay type: cell-based; details: Clostridioides difficile
[4] = system: S. pneumoniae S-4288; assay: In vivo antibacterial activity against systemic infection in mice; design: species or system mice (ICR-S); details: Streptococcus pneumoniae, S4288, po, read-out: ED50 S. pneumoniae S-4288
Experimental: (§1) Experiment-2 In vivo antibacterial activity against systemic infection in mice (ICR-S)
(§2) The infections were produced by intraperitoneal injection of a suspension of the bacterial culture corresponding to the germ studied. The products were administered orally at an hour after the infection.

[5] = system: S. aureus Smith; assay: as above; design: species or system mice (ICR-S); details: Staphylococcus aureus, po
Experimental: as §1, §2

[6] = system: E. coli ML4707; assay: as above; design: species or system mice (ICR-S); details: Escherichia coli, ML4707, po, read-out: ED50 E. coli ML4707
Experimental: as §1, §2

[7] = system: Staphylococcus aureus 209 P; assay: In vitro antibacterial activity, MIC (standard strain); assay type: cell-based; details: Staphylococcus aureus, 209P
[8] = system: Klebsiella pneumoniae KY(GN)6445; assay: as above; assay type: cell-based; details: Klebsiella pneumoniae
[9] = system: S. aureus IID 670 (Terajima); assay: as above; assay type: cell-based, Staphylococcus aureus; details: Staphylococcus aureus, IID670
[10] = system: Salmonella entritidis IID 604; assay: as above; assay type: cell-based; details: Salmonella, IID604
[11] = system: S. epidermidis IID 866; assay: as above; assay type: cell-based; details: Staphylococcus epidermidis, IID866
[12] = system: E. coli ML 4707; assay: as above; assay type: cell-based; details: Escherichia coli, ML4707
[13] = system: Citrobacter freundii IID 976; assay: as above; assay type: cell-based; details: Citrobacter freundii, IID976
[14] = system: Yersinia enterocolitica IID 981; assay: as above; assay type: cell-based; details: Yersinia enterocolitica, IID981
[15] = system: S. aureus Smith; assay: as above; assay type: cell-based, Staphylococcus aureus; details: Staphylococcus aureus, MIC column of Table 3-1, beside ED50 against S. aureus Smith
[16] = system: Serratia marcescens IID 618; assay: as above; assay type: cell-based; details: Serratia marcescens, IID618
[17] = system: Shigella sonnei IID 969; assay: as above; assay type: cell-based; details: IID969, 10^6 cells/ml
Experimental: Experiment-1 In vitro antibacterial activity
The in vitro antibacterial activity against gram-positive and gram-negative bacteria has been investivated.
The minimum inhibitory concentration (MIC) was determined in accordance with the method recommended by Japan Society of Chemotherapy.

[18] = system: Proteus vulgaris IFO 3167; assay: as above; assay type: cell-based; details: Proteus vulgaris, IFO3167
[19] = system: Fusobacterium varium KYA 8501; assay: as above; assay type: cell-based; details: Fusobacterium varium, KYA8501
[20] = system: Bacillus subtilis PCI 219; assay: as above; assay type: cell-based; details: Bacillus subtilis, PCI219
[21] = system: E. coli ATCC 10536; assay: as above; assay type: cell-based; details: Escherichia coli, ATCC10536
[22] = system: P. mirabilis IID 994; assay: as above; assay type: cell-based; details: Proteus mirabilis, IID994
[23] = system: Escherichia coli NIHJ JC-2; assay: as above; assay type: cell-based; details: Escherichia coli, NIHJJC2

## O=C(O)c1cn(C2CC2)c2cc(N3CCNCC3)c(F)cc2c1=O [CFLX, Ciprofloxacin, reference compound]
[1]
  MIC: 0.05 µg/mL (≈ 0.151 µM)
[2]
  MIC: 0.05 µg/mL (≈ 0.151 µM)
[3]
  MIC: 12.5 µg/mL (≈ 37.7 µM)
[4]
  ED50: > 100 mg/kg
[5]; read-out: ED50 S. aureus Smith, mice (ICR-S), an hour after intraperitoneal infection, challenge dose 6.0 x 10^5 cfu/mouse
  ED50: > 25 mg/kg
[5]; read-out: ED50 against S. aureus Smith, mice (ICR-S), an hour after intraperitoneal infection, challenge dose 5.5 x 10^5 cfu/mouse, n=5
  ED50: 25.5 mg/kg
[5]; read-out: ED50 against S. aureus Smith, mice (ICR-S), an hour after intraperitoneal infection, challenge dose 7 x 10^5 cfu/mouse, n=5
  ED50: 12.3 mg/kg
[6]
  ED50: 1.8 mg/kg
[7]
  MIC: 0.2 µg/mL (≈ 0.604 µM)
[8]
  MIC: 0.025 µg/mL (≈ 0.0754 µM)
[9]
  MIC: 0.2 µg/mL (≈ 0.604 µM)
[10]
  MIC: 0.05 µg/mL (≈ 0.151 µM)
[11]
  MIC: 0.2 µg/mL (≈ 0.604 µM)
[12]
  MIC: 0.0125 µg/mL (≈ 0.0377 µM)
[13]
  MIC: 0.025 µg/mL (≈ 0.0754 µM)
[14]
  MIC: 0.05 µg/mL (≈ 0.151 µM)
[15]
  MIC: 0.2 µg/mL (≈ 0.604 µM)
[16]
  MIC: 0.05 µg/mL (≈ 0.151 µM)
[17]
  MIC: 0.0125 µg/mL (≈ 0.0377 µM)
[18]
  MIC: 0.0125 µg/mL (≈ 0.0377 µM)
[19]
  MIC: 12.5 µg/mL (≈ 37.7 µM)
[20]
  MIC: 0.05 µg/mL (≈ 0.151 µM)
[21]
  MIC: 0.025 µg/mL (≈ 0.0754 µM)
[22]
  MIC: 0.025 µg/mL (≈ 0.0754 µM)
[23]
  MIC: 0.0125 µg/mL (≈ 0.0377 µM)
